PMC6934184, “Selective DNA-PKcs inhibition extends the therapeutic index of localized radiotherapy and chemotherapy” (The Journal of Clinical Investigation, 2019)

Target: T1, HIPK4 (Homo sapiens, UniProt Q8NE63)
T1 construct: purchased Thermo Fisher Scientific (Life Technologies) SelectScreen
Test: SelectScreen Z'LYTE
Format: biochemical
Summary of the method: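 Compound tested in SelectScreen activity assays, Z'LYTE for CSF1R, CDK1/cyclin B and MAP2K6 and Adapta for CAMK1. ATP for CAMK1 was listed as 10, and Km app was used for CSF1R. Results are expressed in percent.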

T1 sequence (Q8NE63 whole entry): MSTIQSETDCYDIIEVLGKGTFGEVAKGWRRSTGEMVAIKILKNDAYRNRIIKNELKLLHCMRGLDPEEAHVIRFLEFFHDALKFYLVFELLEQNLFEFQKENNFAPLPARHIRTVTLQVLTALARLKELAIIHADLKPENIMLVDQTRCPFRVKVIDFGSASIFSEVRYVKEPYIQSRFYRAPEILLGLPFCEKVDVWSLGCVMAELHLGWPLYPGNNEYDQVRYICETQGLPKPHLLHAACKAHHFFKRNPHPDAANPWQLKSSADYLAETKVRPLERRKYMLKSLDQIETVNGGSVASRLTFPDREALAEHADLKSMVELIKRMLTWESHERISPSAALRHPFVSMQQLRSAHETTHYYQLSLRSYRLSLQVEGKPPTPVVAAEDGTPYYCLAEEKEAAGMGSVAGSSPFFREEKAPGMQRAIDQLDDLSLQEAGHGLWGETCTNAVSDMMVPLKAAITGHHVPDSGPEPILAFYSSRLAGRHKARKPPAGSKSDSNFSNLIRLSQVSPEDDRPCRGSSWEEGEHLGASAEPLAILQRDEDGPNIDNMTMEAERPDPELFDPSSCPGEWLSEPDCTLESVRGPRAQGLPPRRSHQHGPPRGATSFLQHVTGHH

Compound: CN(C(=O)CN1CCOCC1)c1ccc2sc3c(-c4cccc5c(=O)cc(N6CC7CCC(C6)O7)oc45)cccc3c2c1 [NU5455]
- inhibition at 1 µM: 0.9%
